ChEMBL document CHEMBL1158303, “Macrocarpals H, I, and J from the Leaves of Eucalyptus globulus” (1996)
≈ marks a conversion by molar mass, not a printed value.

Tests used:
[1] = tested on: Streptococcus sobrinus; test: Inhibition of Streptococcus sobrinus glucosyltransferase assessed as blockade of adherent water insoluble glucan synthesis at 10 ug/mL
[2] = tested on: Streptococcus sobrinus; test: Inhibition of Streptococcus sobrinus glucosyltransferase assessed as blockade of adherent water insoluble glucan synthesis at 100 ug/mL
[3] = tested on: Streptococcus sobrinus; test: Inhibition of Streptococcus sobrinus glucosyltransferase assessed as blockade of adherent water insoluble glucan synthesis at 1 ug/mL
[4] = tested on: Streptococcus mutans; test: Antibacterial activity against Streptococcus mutans LA7 by broth dilution method; type: functional
[5] = tested on: Capnocytophaga ochracea; test: Antibacterial activity against Capnocytophaga ochracea 33596 by broth dilution method; type: functional
[6] = tested on: Porphyromonas gingivalis; test: Antibacterial activity against Porphyromonas gingivalis 33277 by broth dilution method; type: functional
[7] = tested on: Streptococcus sobrinus; test: Antibacterial activity against Streptococcus sobrinus 6715 by broth dilution method; type: functional
[8] = tested on: Prevotella intermedia; test: Antibacterial activity against Prevotella intermedia 25611 by broth dilution method; type: functional
[9] = tested on: Streptococcus mutans; test: Antibacterial activity against Streptococcus mutans Ingbritt by broth dilution method; type: functional
[10] = tested on: Prevotella melaninogenica; test: Antibacterial activity against Prevotella melaninogenica 25845 by broth dilution method; type: functional
[11] = tested on: Streptococcus sobrinus; test: Antibacterial activity against Streptococcus sobrinus B13 by broth dilution method; type: functional
[12] = tested on: Actinomyces viscosus; test: Antibacterial activity against Actinomyces viscosus 15987 by broth dilution method; type: functional
[13] = tested on: Fusobacterium nucleatum; test: Antibacterial activity against Fusobacterium nucleatum 25586 by broth dilution method; type: functional

Q: With O=C(O[C@@H]1Cc2c(O)cc(O)cc2O[C@@H]1c1cc(O)c(O)c(O)c1)c1cc(O)c(O)c(O)c1 as the molecule, how does the inhibition [1] read?
A: 10.5%

Q: What about the inhibition [2] of the same molecule?
A: 26.5%

Q: And the inhibition [3]?
A: 3%

Q: With CC(=O)CC[C@@H]1[C@H]([C@H]2C(=O)CC[C@]2(C)C(CC(C)C)c2c(O)c(C=O)c(O)c(C=O)c2O)C1(C)C (some centres not stated) [EUCALYPTONE] as the molecule, how does the MIC [4] read?
A: 12.5 µg/mL (≈ 25.7 µM)

Q: And the inhibition [1]?
A: 44%

Q: What about the MIC [5] of the same molecule?
A: 3.13 µg/mL (≈ 6.43 µM)

Q: What about the MIC [6] of the same molecule?
A: 1.56 µg/mL (≈ 3.21 µM)

Q: And the inhibition [2]?
A: 97.6%

Q: What about the MIC [7] of the same molecule?
A: 25 µg/mL (≈ 51.4 µM)

Q: And the MIC [8]?
A: 0.78 µg/mL (≈ 1.6 µM)

Q: What about the inhibition [3] of the same molecule?
A: 4.4%

Q: What about the MIC [9] of the same molecule?
A: 12.5 µg/mL (≈ 25.7 µM)

Q: And the MIC [10]?
A: 3.13 µg/mL (≈ 6.43 µM)

Q: And the MIC [11]?
A: 25 µg/mL (≈ 51.4 µM)

Q: What about the MIC [12] of the same molecule?
A: 3.13 µg/mL (≈ 6.43 µM)

Q: What about the MIC [13] of the same molecule?
A: 6.25 µg/mL (≈ 12.8 µM)

Q: With CC(C)C[C@@H](c1c(O)c(C=O)c(O)c(C=O)c1O)[C@@]1(C)CC[C@@H]2[C@@H]1[C@H]1[C@@H](CC[C@@]2(C)O)C1(C)C [MACROCARPAL A] as the molecule, how does the MIC [4] read?
A: 0.78 µg/mL (≈ 1.65 µM)

Q: What about the inhibition [1] of the same molecule?
A: 75.4%

Q: And the MIC [5]?
A: 0.78 µg/mL (≈ 1.65 µM)

Q: What about the MIC [6] of the same molecule?
A: 0.39 µg/mL (≈ 0.825 µM)

Q: What about the inhibition [2] of the same molecule?
A: 97.1%

Q: What about the MIC [7] of the same molecule?
A: 1.56 µg/mL (≈ 3.3 µM)

Q: And the MIC [8]?
A: 0.39 µg/mL (≈ 0.825 µM)

Q: And the inhibition [3]?
A: 9.7%

Q: What about the MIC [9] of the same molecule?
A: 0.78 µg/mL (≈ 1.65 µM)

Q: What about the MIC [10] of the same molecule?
A: 0.78 µg/mL (≈ 1.65 µM)

Q: And the MIC [11]?
A: 1.56 µg/mL (≈ 3.3 µM)

Q: What about the MIC [12] of the same molecule?
A: 0.39 µg/mL (≈ 0.825 µM)

Q: And the MIC [13]?
A: 6.25 µg/mL (≈ 13.2 µM)

Q: Which results are given for CC(C)C[C@H](c1c(O)c(C=O)c(O)c(C=O)c1O)[C@@]1(C)CC[C@@H]2[C@@H]1[C@H]1[C@@H](CC[C@@]2(C)O)C1(C)C [MACROCARPAL B]?
A: MIC [4]: 1.56 µg/mL (≈ 3.3 µM); inhibition [1]: 67.6%; MIC [5]: 1.56 µg/mL (≈ 3.3 µM); MIC [6]: 0.78 µg/mL (≈ 1.65 µM); inhibition [2]: 97.1%; MIC [7]: 3.13 µg/mL (≈ 6.62 µM); MIC [8]: 1.56 µg/mL (≈ 3.3 µM); inhibition [3]: 10.1%; MIC [9]: 3.13 µg/mL (≈ 6.62 µM); MIC [10]: 3.13 µg/mL (≈ 6.62 µM); MIC [11]: 3.13 µg/mL (≈ 6.62 µM); MIC [12]: 0.39 µg/mL (≈ 0.825 µM); MIC [13]: 3.13 µg/mL (≈ 6.62 µM)

Q: Which MIC [4] does the source give for C=C1CC[C@@H]2[C@H]([C@H]3[C@H]1CC[C@]3(C)[C@@H](CC(C)C)c1c(O)c(C=O)c(O)c(C=O)c1O)C2(C)C [MACROCARPAL C] here?
A: 0.39 µg/mL (≈ 0.858 µM)

Q: And the inhibition [1]?
A: 92.6%

Q: What about the MIC [5] of the same molecule?
A: 0.39 µg/mL (≈ 0.858 µM)

Q: What about the MIC [6] of the same molecule?
A: 0.2 µg/mL (≈ 0.44 µM)

Q: What about the inhibition [2] of the same molecule?
A: 98.9%

Q: And the MIC [7]?
A: 1.56 µg/mL (≈ 3.43 µM)

Q: And the MIC [8]?
A: 0.39 µg/mL (≈ 0.858 µM)

Q: And the inhibition [3]?
A: 18.9%

Q: What about the MIC [9] of the same molecule?
A: 0.39 µg/mL (≈ 0.858 µM)

Q: What about the MIC [10] of the same molecule?
A: 1.56 µg/mL (≈ 3.43 µM)

Q: What about the MIC [11] of the same molecule?
A: 1.56 µg/mL (≈ 3.43 µM)

Q: And the MIC [12]?
A: 0.2 µg/mL (≈ 0.44 µM)

Q: And the MIC [13]?
A: 0.78 µg/mL (≈ 1.72 µM)

Q: How did the MIC [4] turn out when CC(C)C[C@@H](c1c(O)c(C=O)c(O)c(C=O)c1O)[C@@]1(C)CC[C@H]2C1=C[C@H](C(C)(C)O)CC[C@H]2C [MACROCARPAL D] was run?
A: 0.78 µg/mL (≈ 1.65 µM)

Q: And the inhibition [1]?
A: 78.2%

Q: And the MIC [5]?
A: 1.56 µg/mL (≈ 3.3 µM)

Q: And the MIC [6]?
A: 0.39 µg/mL (≈ 0.825 µM)

Q: What about the inhibition [2] of the same molecule?
A: 99%

Q: What about the MIC [7] of the same molecule?
A: 3.13 µg/mL (≈ 6.62 µM)

Q: What about the MIC [8] of the same molecule?
A: 0.39 µg/mL (≈ 0.825 µM)

Q: And the inhibition [3]?
A: 17.3%

Q: What about the MIC [9] of the same molecule?
A: 1.56 µg/mL (≈ 3.3 µM)

Q: And the MIC [10]?
A: 1.56 µg/mL (≈ 3.3 µM)

Q: What about the MIC [11] of the same molecule?
A: 0.78 µg/mL (≈ 1.65 µM)

Q: What about the MIC [12] of the same molecule?
A: 0.39 µg/mL (≈ 0.825 µM)

Q: And the MIC [13]?
A: 6.25 µg/mL (≈ 13.2 µM)

Q: C=C1CC[C@@H]([C@H](CC(C)C)c2c(O)c(C=O)c(O)c(C=O)c2O)[C@]2(C)CC[C@@H](C(C)(C)O)C[C@@H]12 [MACROCARPAL H] was tested. Which MIC [4] did it give?
A: 1.56 µg/mL (≈ 3.3 µM)

Q: And the inhibition [1]?
A: 64%

Q: What about the MIC [5] of the same molecule?
A: 1.56 µg/mL (≈ 3.3 µM)

Q: What about the MIC [6] of the same molecule?
A: 0.78 µg/mL (≈ 1.65 µM)

Q: And the inhibition [2]?
A: 97.6%

Q: What about the MIC [7] of the same molecule?
A: 3.13 µg/mL (≈ 6.62 µM)

Q: And the MIC [8]?
A: 0.78 µg/mL (≈ 1.65 µM)

Q: And the inhibition [3]?
A: 2.9%

Q: What about the MIC [9] of the same molecule?
A: 3.13 µg/mL (≈ 6.62 µM)

Q: And the MIC [10]?
A: 3.13 µg/mL (≈ 6.62 µM)

Q: And the MIC [11]?
A: 3.13 µg/mL (≈ 6.62 µM)

Q: And the MIC [12]?
A: 0.39 µg/mL (≈ 0.825 µM)

Q: What about the MIC [13] of the same molecule?
A: 6.25 µg/mL (≈ 13.2 µM)

Q: What does the source list for CC(C)C[C@H](c1c(O)c(C=O)c(O)c(C=O)c1O)[C@@H]1CC[C@@](C)(O)[C@@H]2C[C@H](C(C)(C)O)CC[C@]21C [MACROCARPAL I]?
A: MIC [4]: 25 µg/mL (≈ 51 µM); inhibition [1]: 26.3%; MIC [5]: 12.5 µg/mL (≈ 25.5 µM); MIC [6]: 6.25 µg/mL (≈ 12.7 µM); inhibition [2]: 86.9%; MIC [7]: 100 µg/mL (≈ 204 µM); MIC [8]: 12.5 µg/mL (≈ 25.5 µM); inhibition [3]: 0%; MIC [9]: 50 µg/mL (≈ 102 µM); MIC [10]: 12.5 µg/mL (≈ 25.5 µM); MIC [11]: 100 µg/mL (≈ 204 µM); MIC [12]: 12.5 µg/mL (≈ 25.5 µM); MIC [13]: 25 µg/mL (≈ 51 µM)

Q: How did the MIC [4] turn out when CC(C)CC(c1c(O)c(C=O)c(O)c(C=O)c1O)[C@@H]1CC[C@@](C)(O)[C@@H]2C[C@H](C(C)(C)O)CC[C@]21C (some centres not stated) [MACROCARPAL J] was run?
A: 25 µg/mL (≈ 51 µM)

Q: And the inhibition [1]?
A: 29.7%

Q: What about the MIC [5] of the same molecule?
A: 12.5 µg/mL (≈ 25.5 µM)

Q: And the MIC [6]?
A: 6.25 µg/mL (≈ 12.7 µM)

Q: What about the inhibition [2] of the same molecule?
A: 77.1%

Q: And the MIC [7]?
A: 100 µg/mL (≈ 204 µM)

Q: What about the MIC [8] of the same molecule?
A: 12.5 µg/mL (≈ 25.5 µM)

Q: And the inhibition [3]?
A: 6.9%

Q: And the MIC [9]?
A: 50 µg/mL (≈ 102 µM)

Q: And the MIC [10]?
A: 12.5 µg/mL (≈ 25.5 µM)

Q: And the MIC [11]?
A: 100 µg/mL (≈ 204 µM)

Q: And the MIC [12]?
A: 12.5 µg/mL (≈ 25.5 µM)

Q: What about the MIC [13] of the same molecule?
A: 25 µg/mL (≈ 51 µM)

Q: Which results are given for Cc1ccc(C(C)C)c(O)c1 [THYMOL]?
A: MIC [4]: 400 µg/mL (≈ 2660 µM); MIC [5]: 100 µg/mL (≈ 666 µM); MIC [6]: 200 µg/mL (≈ 1330 µM); MIC [7]: 200 µg/mL (≈ 1330 µM); MIC [8]: 200 µg/mL (≈ 1330 µM); MIC [9]: 400 µg/mL (≈ 2660 µM); MIC [10]: 200 µg/mL (≈ 1330 µM); MIC [11]: 400 µg/mL (≈ 2660 µM); MIC [12]: 200 µg/mL (≈ 1330 µM); MIC [13]: 50 µg/mL (≈ 333 µM)
